Data taken from patent US6358885B1, “Substituted phenylheterocyclic herbicides” (Mississippi State University, priority 1992, dated 2002).

Columns and labels:
Assay in all cases: Test B preemergence/postemergence greenhouse plant response rating 0 to 10
Conditions in all cases: 0 to 10 scale
barley = assay type: in vivo, Hordeum vulgare
Outline: (§1)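 Test chemicals were sprayed onto freshly planted seed and, concurrently, onto young plants between the one and four leaf stage. After a twelve- to sixteen-day greenhouse period, each species was visually compared with untreated controls.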

barnyardgrass = assay type: in vivo, Echinochloa crus-galli
Outline: as §1

bedstraw = assay type: in vivo, Galium aparine
Outline: as §1

blackgrass = assay type: in vivo, Alopecurus myosuroides
Outline: as §1

cheatgrass = assay type: in vivo, Bromus secalinus
Outline: as §1

chickweed = assay type: in vivo, Stellaria media
Outline: as §1

cocklebur = assay type: in vivo, Xanthium pensylvanicum
Outline: as §1

corn = assay type: in vivo, Zea mays
Outline: as §1

cotton = assay type: in vivo, Gossypium hirsutum
Outline: as §1

crabgrass = assay type: in vivo, Digitaria spp.
Outline: as §1

giant foxtail = assay type: in vivo, Setaria faberii
Outline: as §1

lambsquarters = assay type: in vivo, Chenopodium album
Outline: as §1

morningglory = assay type: in vivo, Ipomoea hederacea
Outline: as §1

rape = assay type: in vivo, Brassica napus
Outline: as §1

rice = assay type: in vivo, Oryza sativa
Outline: as §1

sorghum = assay type: in vivo, Sorghum bicolor
Outline: as §1

soybean = assay type: in vivo, Glycine max
Outline: as §1

sugar beet = assay type: in vivo, Beta vulgaris
Outline: as §1

velvetleaf = assay type: in vivo, Abutilon theophrasti
Outline: as §1

wheat = assay type: in vivo, Triticum aestivum
Outline: as §1

wild buckwheat = assay type: in vivo, Polygonum convolvulus
Outline: as §1

wild oat = assay type: in vivo, Avena fatua
Outline: as §1

purple nutsedge = assay type: in vivo, Cyperus rotundus
Outline: as §1

SMILES: O=C1COc2cc(F)c(-c3nn4c(c3Cl)CCCC4)cc2N1 [Compound 51]
- Plant response rating, Barley (barley; POSTEMERGENCE, Rate 50 g/ha): 3
- Plant response rating, Barley (barley; POSTEMERGENCE, Rate 200 g/ha): 3
- Plant response rating, Barley (barley; PREEMERGENCE, Rate 50 g/ha): 0
- Plant response rating, Barley (barley; Rate 200 g/ha, PREEMERGENCE): 0
- Plant response rating, Barnyardgrass (barnyardgrass; POSTEMERGENCE, Rate 50 g/ha): 8
- Plant response rating, Barnyardgrass (barnyardgrass; POSTEMERGENCE, Rate 200 g/ha): 9
- Plant response rating, Barnyardgrass (barnyardgrass; PREEMERGENCE, Rate 50 g/ha): 9
- Plant response rating, Barnyardgrass (barnyardgrass; Rate 200 g/ha, PREEMERGENCE): 9
- Plant response rating, Bedstraw (bedstraw; POSTEMERGENCE, Rate 50 g/ha): 10
- Plant response rating, Bedstraw (bedstraw; POSTEMERGENCE, Rate 200 g/ha): 10
- Plant response rating, Bedstraw (bedstraw; PREEMERGENCE, Rate 50 g/ha): 5
- Plant response rating, Bedstraw (bedstraw; Rate 200 g/ha, PREEMERGENCE): 10
- Plant response rating, Blackgrass (blackgrass; POSTEMERGENCE, Rate 50 g/ha): 6
- Plant response rating, Blackgrass (blackgrass; POSTEMERGENCE, Rate 200 g/ha): 6
- Plant response rating, Blackgrass (blackgrass; PREEMERGENCE, Rate 50 g/ha): 2
- Plant response rating, Blackgrass (blackgrass; Rate 200 g/ha, PREEMERGENCE): 6
- Plant response rating, Cheatgrass (cheatgrass; POSTEMERGENCE, Rate 50 g/ha): 4
- Plant response rating, Cheatgrass (cheatgrass; POSTEMERGENCE, Rate 200 g/ha): 4
- Plant response rating, Cheatgrass (cheatgrass; PREEMERGENCE, Rate 50 g/ha): 3
- Plant response rating, Cheatgrass (cheatgrass; Rate 200 g/ha, PREEMERGENCE): 5
- Plant response rating, Chickweed (chickweed; POSTEMERGENCE, Rate 50 g/ha): 10
- Plant response rating, Chickweed (chickweed; POSTEMERGENCE, Rate 200 g/ha): 10
- Plant response rating, Chickweed (chickweed; PREEMERGENCE, Rate 50 g/ha): 6
- Plant response rating, Chickweed (chickweed; Rate 200 g/ha, PREEMERGENCE): 10
- Plant response rating, Cocklebur (cocklebur; POSTEMERGENCE, Rate 50 g/ha): 9
- Plant response rating, Cocklebur (cocklebur; POSTEMERGENCE, Rate 200 g/ha): 10
- Plant response rating, Cocklebur (cocklebur; PREEMERGENCE, Rate 50 g/ha): 2
- Plant response rating, Cocklebur (cocklebur; Rate 200 g/ha, PREEMERGENCE): 9
- Plant response rating, Corn (corn; POSTEMERGENCE, Rate 50 g/ha): 4
- Plant response rating, Corn (corn; POSTEMERGENCE, Rate 200 g/ha): 6
- Plant response rating, Corn (corn; PREEMERGENCE, Rate 50 g/ha): 0
- Plant response rating, Corn (corn; Rate 200 g/ha, PREEMERGENCE): 0
- Plant response rating, Cotton (cotton; POSTEMERGENCE, Rate 50 g/ha): 10
- Plant response rating, Cotton (cotton; POSTEMERGENCE, Rate 200 g/ha): 10
- Plant response rating, Cotton (cotton; PREEMERGENCE, Rate 50 g/ha): 1
- Plant response rating, Cotton (cotton; Rate 200 g/ha, PREEMERGENCE): 5
- Plant response rating, Crabgrass (crabgrass; POSTEMERGENCE, Rate 50 g/ha): 4
- Plant response rating, Crabgrass (crabgrass; POSTEMERGENCE, Rate 200 g/ha): 5
- Plant response rating, Crabgrass (crabgrass; PREEMERGENCE, Rate 50 g/ha): 2
- Plant response rating, Crabgrass (crabgrass; Rate 200 g/ha, PREEMERGENCE): 9
- Plant response rating, Giant foxtail (giant foxtail; POSTEMERGENCE, Rate 50 g/ha): 4
- Plant response rating, Giant foxtail (giant foxtail; PREEMERGENCE, Rate 50 g/ha): 2
- Plant response rating, Giant foxtail (giant foxtail; Rate 200 g/ha, POSTEMERGENCE): 6
- Plant response rating, Giant foxtail (giant foxtail; Rate 200 g/ha, PREEMERGENCE): 8
- Plant response rating, Lambsquarter (lambsquarters; POSTEMERGENCE, Rate 50 g/ha): 10
- Plant response rating, Lambsquarter (lambsquarters; PREEMERGENCE, Rate 50 g/ha): 10
- Plant response rating, Lambsquarter (lambsquarters; Rate 200 g/ha, POSTEMERGENCE): 10
- Plant response rating, Lambsquarter (lambsquarters; Rate 200 g/ha, PREEMERGENCE): 10
- Plant response rating, Morningglory (morningglory; POSTEMERGENCE, Rate 50 g/ha): 9
- Plant response rating, Morningglory (morningglory; PREEMERGENCE, Rate 50 g/ha): 9
- Plant response rating, Morningglory (morningglory; Rate 200 g/ha, POSTEMERGENCE): 10
- Plant response rating, Morningglory (morningglory; Rate 200 g/ha, PREEMERGENCE): 10
- Plant response rating, Rape (rape; POSTEMERGENCE, Rate 50 g/ha): 7
- Plant response rating, Rape (rape; PREEMERGENCE, Rate 50 g/ha): 8
- Plant response rating, Rape (rape; Rate 200 g/ha, POSTEMERGENCE): 10
- Plant response rating, Rape (rape; Rate 200 g/ha, PREEMERGENCE): 10
- Plant response rating, Rice (rice; POSTEMERGENCE, Rate 50 g/ha): 3
- Plant response rating, Rice (rice; PREEMERGENCE, Rate 50 g/ha): 0
- Plant response rating, Rice (rice; Rate 200 g/ha, POSTEMERGENCE): 5
- Plant response rating, Rice (rice; Rate 200 g/ha, PREEMERGENCE): 2
- Plant response rating, Sorghum (sorghum; POSTEMERGENCE, Rate 50 g/ha): 4
- Plant response rating, Sorghum (sorghum; PREEMERGENCE, Rate 50 g/ha): 0
- Plant response rating, Sorghum (sorghum; Rate 200 g/ha, POSTEMERGENCE): 6
- Plant response rating, Sorghum (sorghum; Rate 200 g/ha, PREEMERGENCE): 0
- Plant response rating, Soybean (soybean; POSTEMERGENCE, Rate 50 g/ha): 8
- Plant response rating, Soybean (soybean; PREEMERGENCE, Rate 50 g/ha): 1
- Plant response rating, Soybean (soybean; Rate 200 g/ha, POSTEMERGENCE): 9
- Plant response rating, Soybean (soybean; Rate 200 g/ha, PREEMERGENCE): 8
- Plant response rating, Sugar beet (sugar beet; POSTEMERGENCE, Rate 50 g/ha): 10
- Plant response rating, Sugar beet (sugar beet; PREEMERGENCE, Rate 50 g/ha): 10
- Plant response rating, Sugar beet (sugar beet; Rate 200 g/ha, POSTEMERGENCE): 10
- Plant response rating, Sugar beet (sugar beet; Rate 200 g/ha, PREEMERGENCE): 10
- Plant response rating, Velvetleaf (velvetleaf; POSTEMERGENCE, Rate 50 g/ha): 9
- Plant response rating, Velvetleaf (velvetleaf; PREEMERGENCE, Rate 50 g/ha): 10
- Plant response rating, Velvetleaf (velvetleaf; Rate 200 g/ha, POSTEMERGENCE): 10
- Plant response rating, Velvetleaf (velvetleaf; Rate 200 g/ha, PREEMERGENCE): 10
- Plant response rating, Wheat (wheat; POSTEMERGENCE, Rate 50 g/ha): 3
- Plant response rating, Wheat (wheat; PREEMERGENCE, Rate 50 g/ha): 0
- Plant response rating, Wheat (wheat; Rate 200 g/ha, POSTEMERGENCE): 4
- Plant response rating, Wheat (wheat; Rate 200 g/ha, PREEMERGENCE): 2
- Plant response rating, Wild buckwheat (wild buckwheat; POSTEMERGENCE, Rate 50 g/ha): 10
- Plant response rating, Wild buckwheat (wild buckwheat; PREEMERGENCE, Rate 50 g/ha): 10
- Plant response rating, Wild buckwheat (wild buckwheat; Rate 200 g/ha, POSTEMERGENCE): 10
- Plant response rating, Wild buckwheat (wild buckwheat; Rate 200 g/ha, PREEMERGENCE): 10
- Plant response rating, Wild oat (wild oat; POSTEMERGENCE, Rate 50 g/ha): 2
- Plant response rating, Wild oat (wild oat; PREEMERGENCE, Rate 50 g/ha): 0
- Plant response rating, Wild oat (wild oat; Rate 200 g/ha, POSTEMERGENCE): 3
- Plant response rating, Nutsedge (purple nutsedge; POSTEMERGENCE, Rate 50 g/ha): 3
- Plant response rating, Nutsedge (purple nutsedge; PREEMERGENCE, Rate 50 g/ha): 0
- Plant response rating, Nutsedge (purple nutsedge; Rate 200 g/ha, POSTEMERGENCE): 3
- Plant response rating, Nutsedge (purple nutsedge; Rate 200 g/ha, PREEMERGENCE): 0
